PubChem BioAssay AID248 (DTP/NCI, 2004)
Inconclusive results and toxic doses are left out.

Test system: L1210 leukemia ip in BDF1 mice, survival T/C
Experiment: NCI In Vivo Anticancer Drug Screen. Data for tumor model L1210 Leukemia (intraperitoneal) in B6D2F1 (BDF1) mice
Conditions: endpoint: mean survival time, higher = longer survival
Method in brief: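 In this screen, tumor-bearing mice given compound are compared to those given vehicle, and their survival values are reported as a treated-to-control quotient.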

[1] = dose: 100.0 mg/kg/injection, schedule: Q01DX001 (ip), vehicle: carboxymethylcellulose (CMC)

Structure (SMILES): NC(N)=NC(N)=Nc1ccc(Cl)c(Cl)c1
- T/C (dose: 25.0 mg/kg/injection, schedule: Q01DX009 (ip), vehicle: Klucel (hydroxypropylcellulose) (HPC)): 100 % of control
- T/C (dose: 25.0 mg/kg/injection, schedule: Q01DX009 (ip), vehicle: saline): 104 % of control
- T/C (dose: 50.0 mg/kg/injection, schedule: Q01DX009 (ip), vehicle: Klucel (hydroxypropylcellulose) (HPC)): 104 % of control
- T/C (dose: 50.0 mg/kg/injection, schedule: Q01DX009 (ip), vehicle: saline): 98 % of control
- T/C (dose: 75.0 mg/kg/injection, schedule: Q01DX009 (ip), vehicle: Klucel (hydroxypropylcellulose) (HPC)): 102 % of control
- T/C (dose: 100.0 mg/kg/injection, schedule: Q01DX009 (ip), vehicle: saline): 91 % of control
- T/C (dose: 100.0 mg/kg/injection, schedule: Q04DX003 (ip), vehicle: saline with Tween-80): 100 % of control

Structure (SMILES): C=CCNC(=O)C[n+]1cccc(C(=O)NC)c1
- T/C (dose: 100.0 mg/kg/injection, schedule: Q01DX001 (ip), vehicle: saline): 106 % of control
- T/C (dose: 200.0 mg/kg/injection, schedule: Q01DX001 (ip), vehicle: saline): 103 % of control
- T/C (dose: 400.0 mg/kg/injection, schedule: Q01DX001 (ip), vehicle: saline): 97 % of control

Structure (SMILES): CNc1c([N+](=O)[O-])ncn1C
- T/C (dose: 12.5 mg/kg/injection, schedule: Q04DX003 (ip), vehicle: saline): 98 % of control
- T/C (dose: 25.0 mg/kg/injection, schedule: Q04DX003 (ip), vehicle: saline): 94 % of control
- T/C (dose: 50.0 mg/kg/injection, schedule: Q04DX003 (ip), vehicle: saline): 91 % of control
- T/C (dose: 100.0 mg/kg/injection, schedule: Q04DX003 (ip), vehicle: saline): 97 % of control

Structure (SMILES): CCOC(=O)c1cnc(NN)nc1Nc1cc(Cl)cc(Cl)c1
- T/C (dose: 200.0 mg/kg/injection, schedule: Q04DX003 (ip), vehicle: saline with Tween-80): 90 % of control

Structure (SMILES): Cc1c(CNc2ccc(C(=O)NC(CC(=O)O)C(=O)O)cc2)ccc2nc(N)nc(N)c12 (centres undefined)
- T/C (dose: 0.05 mg/kg/injection, schedule: Q01DX009 (ip), vehicle: other): 122 % of control
- T/C (dose: 0.06 mg/kg/injection, schedule: Q01DX009 (ip), vehicle: other): 117 % of control
- T/C (dose: 0.1 mg/kg/injection, schedule: Q01DX009 (ip), vehicle: carboxymethylcellulose (CMC)): 94 % of control
- T/C (dose: 0.1 mg/kg/injection, schedule: Q01DX009 (ip), vehicle: other): 152 % of control
- T/C (dose: 0.19 mg/kg/injection, schedule: Q01DX009 (ip), vehicle: other): 115 % of control
- T/C (dose: 0.19 mg/kg/injection, schedule: Q01DX009 (ip), vehicle: water): 175 % of control
- T/C (dose: 0.25 mg/kg/injection, schedule: Q01DX009 (ip), vehicle: other): 101 % of control
- T/C (dose: 0.38 mg/kg/injection, schedule: Q01DX009 (ip), vehicle: other): 102 % of control
- T/C (dose: 0.38 mg/kg/injection, schedule: Q01DX009 (ip), vehicle: water): 116 % of control
- T/C (dose: 0.5 mg/kg/injection, schedule: Q02DX005 (ip), vehicle: water): 205 % of control
- T/C (dose: 0.75 mg/kg/injection, schedule: Q01DX009 (ip), vehicle: carboxymethylcellulose (CMC)): 91 % of control
- T/C (dose: 0.75 mg/kg/injection, schedule: Q01DX009 (ip), vehicle: water): 94 % of control
- T/C (dose: 1.0 mg/kg/injection, schedule: Q02DX005 (ip), vehicle: water): 158 % of control
- T/C (dose: 1.5 mg/kg/injection, schedule: Q01DX009 (ip), vehicle: water): 98 % of control
- T/C (dose: 1.56 mg/kg/injection, schedule: Q01DX001 (ip), vehicle: other): 124 % of control
- T/C (dose: 1.69 mg/kg/injection, schedule: Q04DX003 (ip), vehicle: water): 167 % of control
- T/C (dose: 3.0 mg/kg/injection, schedule: Q01DX009 (ip), vehicle: water): 97 % of control
- T/C (dose: 3.38 mg/kg/injection, schedule: Q04DX003 (ip), vehicle: water): 173 % of control
- T/C (dose: 4.0 mg/kg/injection, schedule: Q02DX005 (ip), vehicle: water): 118 % of control
- T/C (dose: 6.75 mg/kg/injection, schedule: Q04DX003 (ip), vehicle: water): 195 % of control
- T/C (dose: 8.0 mg/kg/injection, schedule: Q02DX005 (ip), vehicle: water): 89 % of control
- T/C (dose: 12.5 mg/kg/injection, schedule: Q01DX001 (ip), vehicle: other): 159 % of control
- T/C (dose: 13.5 mg/kg/injection, schedule: Q04DX003 (ip), vehicle: water): 224 % of control
- T/C (dose: 25.0 mg/kg/injection, schedule: Q01DX001 (ip), vehicle: carboxymethylcellulose (CMC)): 98 % of control
- T/C (dose: 25.0 mg/kg/injection, schedule: Q01DX001 (ip), vehicle: other): 98 % of control
- T/C (dose: 27.0 mg/kg/injection, schedule: Q04DX003 (ip), vehicle: water): 119 % of control
- T/C (dose: 50.0 mg/kg/injection, schedule: Q01DX001 (ip), vehicle: carboxymethylcellulose (CMC)): 155 % of control
- T/C [1]: 158 % of control

Structure (SMILES): c1ccc(-c2cncc(CNCc3cncc(-c4ccccc4)c3)c2)cc1
- T/C (dose: 100.0 mg/kg/injection, schedule: Q01DX001 (ip), vehicle: Klucel (hydroxypropylcellulose) (HPC)): 102 % of control
- T/C (dose: 200.0 mg/kg/injection, schedule: Q01DX001 (ip), vehicle: Klucel (hydroxypropylcellulose) (HPC)): 95 % of control
- T/C (dose: 400.0 mg/kg/injection, schedule: Q01DX001 (ip), vehicle: Klucel (hydroxypropylcellulose) (HPC)): 110 % of control

Structure (SMILES): CSc1cc2c(cc1N)Cc1cc(F)ccc1-2
- T/C [1]: 98 % of control
- T/C (dose: 200.0 mg/kg/injection, schedule: Q01DX001 (ip), vehicle: carboxymethylcellulose (CMC)): 98 % of control
- T/C (dose: 400.0 mg/kg/injection, schedule: Q01DX001 (ip), vehicle: carboxymethylcellulose (CMC)): 95 % of control
